For orientation: pKa means the pH at which an ionisable group is half protonated. Broadly, the log P is the decadic logarithm of the partition coefficient of the neutral form, usually between octanol and water.

The values below come from article PMC10290130, “The potential of phenothiazinium dyes as cytotoxicity markers in cisplatin-treated cells” (Scientific Reports, 2023).

Molecules are shown by their SMILES. Where two headings read alike, the source gives them in different places.

Series [1] deals with Vero cells. To be noted: 72 h of incubation; cited from earlier work.
Details of series [2]: method as in PMID 23758207. To be noted: cited from earlier work.
The test system of series [3] is Vero cells. Description: Light microscopy of phenothiazinium dye accumulation in cells. The class given is cell-based, African green monkey. The following applies: during incubation with cells; phenothiazinium dyes 100 µM, NR 50 µg/ml. The method, then: The accumulation of phenothiazine dyes in cells was detected by light and confocal microscopies. Firstly, Vero cells were incubated with MB, NMB, TBO, and DMMB (100, 50, 25 and 12.5 µM) for 3 h, 37 °C, 5% CO2 and washed with PBS. […] For confocal detection of phenothiazinium dyes, Vero cell cultures were incubated with 10 μM of MB, NMB, TBO or DMMB for 30 min, 37 °C, with 5% CO2. For all procedures, non-treated controls were incubated with RPMI under the same conditions. The cultures were washed with PBS and treated with trypsin for 10 min, 37 °C and 5% CO2. The cells were transferred to slides and analyzed by confocal microscopy with excitation/emission wavelengths of 543/600 nm, respectively.

Series [4] deals with Vero cells and fibroblasts. Description: DMSO cytotoxicity, 72 h, read with phenothiazinium dyes, NR or MTT. The class given is cell-based, African green monkey; human. To be noted: DMSO in concentrations above 5%. The protocol: (§1) Cells were treated with either DMSO (Vero cells and primary fibroblasts) or cisplatin (LLC-MK2, MCF 10A, and MDA-MB-231). […] After treatment with DMSO and cisplatin, labeling with MTT or NR was performed as described previously[27],[28] with modifications[29],[30]. Cells incubated with phenothiazinium dyes were processed by the same protocol used for NR. […] The cells incubated with MTT were diluted with 100 µl of DMSO. The plates were read at 540 nm (NR) or 570 nm (MTT) in an ELISA reader (Epoch Biotek). Three (LLC-MK2 and MDA-MB-231) and two (Vero cells, human primary fibroblasts and MCF 10A) independent experiments were performed.
(§2) Values for area under the curve were calculated with GraphPad Prism 8.0 software (San Diego, California USA). For cells incubated with DMSO or cisplatin, the percentage of inhibition was calculated from the absorbance of treated samples relative to their non-treated controls. These values were used to calculate the half-maximal inhibitory concentration (IC50) of cisplatin and DMSO, which was done with Compusyn software (version 1.0)[31].

For series [5], the system named is MDA-MB-231. Further details: method as in PMID 33261142. To be noted: read-out: concentration inhibiting 50% of growth; cited from earlier work.
The subject of series [6] is LLC-MK2. Description: Cisplatin cytotoxicity, 72 h, read with phenothiazinium dyes, NR or MTT. The class given is cell-based, rhesus monkey. The protocol: as §1, §2
Series [7] has as its system MDA-MB-231. The description is as above. The class given is cell-based, human. The method, then: as §1, §2
Series [8] concerns MCF 10A. Described as above. The series is classed as cell-based, human. The method, then:
as §1, §2

`Cc1cc(N(C)C)cc2[s+]c3cc(N(C)C)cc(C)c3nc12.[Cl-]` [DMMB, 3,7-bis(dimethylamino)-1,9-dimethylphenothiazin-5-ium chloride]: in series [1], the “concentrations with toxic effects” value is recorded as “below 10 µM”.

With `Cc1cc2nc3ccc(N(C)C)cc3nc2cc1N.Cl` [NR, 3-amino-7-dimethylamino-2-methylphenazine hydrochloride], the pKa in series [2] is reported as 6.9. In series [2] (free base state), the “log P” value is recorded as 1.9. In addition, in series [3], the “dye precipitation / crystal formation” value is on record as “Crystals of NR formed”.

For the compound `C[S+](C)[O-]` [DMSO, dimethyl sulfoxide], the cell inhibition in series [4] was greater than 70%.

Take `N.N.[Cl][Pt][Cl]` [cisplatin, cis-diammineplatinum (II) dichloride]: the IC50 in series [5] is 6 µM; in series [6] (indicator DMMB), 29.5 µM; in series [6] (indicator MB) it was 19 µM; in series [6] (indicator MTT), 25.2 µM; in series [6] (indicator NMB), 28.2 µM; in series [6] (indicator NR), 34.9 µM. Also, the IC50 in series [6] (indicator TBO) amounted to 30.4 µM; in series [7] (indicator NMB), 1.83 µM; in series [7] (indicator NR) it was 8.44 µM; in series [8] (indicator DMMB), 14.8 µM; in series [8] (indicator MB), 9.26 µM; in series [8] (indicator MTT) it was 11.9 µM. Also, the IC50 in series [8] (indicator NMB) turned out to be 17.1 µM; in series [8] (indicator NR), 13.5 µM; in series [8] (indicator TBO), 14.6 µM. Besides, the “concentrations at which cells were resistant” value in series [6] is less than 50 µM; in series [8] it was “below 25 µM”. The cell inhibition result in series [7] (cisplatin at concentrations above 12.5 µM) was “more than 50%”.
